The numbers were not newly measured in patent US10112962B2, “Boron-based prodrug strategy for increased bioavailability and lower-dosage requirements for drug molecules containing at least one phenol (or aromatic hydroxyl) group” (XAVIER UNIVERSITY OF LOUISIANA, priority 2014, dated 2018), which cites them from elsewhere.

For data set [1] the following is noted: literature statement.
The conditions of data set [2]: literature statement. The source holds these as a separate data set.

On to `C[C@]12CC[C@@H]3c4ccc(O)cc4C[C@@H](CCCCCCCCC[S+]([O-])CCCC(F)(F)C(F)(F)F)[C@H]3[C@@H]1CC[C@@H]2O` (stereo partly shown) [Fulvestrant], for which, in data set [1], the oral bioavailability entry was “poor oral bioavailability”.
As for `O=C(Nc1ccc([N+](=O)[O-])cc1Cl)c1cc(Cl)ccc1O` [niclosamide, Niclosamide], in data set [1], the oral bioavailability result is given as “low oral bioavailability”. For the same compound, the water solubility result in data set [2] is on record as “poor water solubility”.
On to `O=C(c1ccc(OCCN2CCCCC2)cc1)c1c(-c2ccc(O)cc2)sc2cc(O)ccc12` [raloxifen, Raloxifene], for which, in data set [1], the oral bioavailability entry is on record as “poor bioavailability”.
